For data set [1], the system named is dd-strain male mice. The experiment in a line: Acute toxicity test (minimum lethal dose, oral). The class given is in vivo. The following applies: oral administration, three mice per group, mortality seven days after administration. The method, then:
Test compounds were orally administered to groups of dd-strain male mice weighing 20 ± 1 g, each group consisting of three mice. Seven days after the administration, minimum lethal dose (MLD) of each compound was determined by observing the mortality.

Data set [2] concerns the target T1, A₁ receptor (Cavia porcellus, UniProt P47745).
T1 construct: from tissue; host or cells: guinea pig cerebrum membrane preparation
T1 sequence (P47745 1-326): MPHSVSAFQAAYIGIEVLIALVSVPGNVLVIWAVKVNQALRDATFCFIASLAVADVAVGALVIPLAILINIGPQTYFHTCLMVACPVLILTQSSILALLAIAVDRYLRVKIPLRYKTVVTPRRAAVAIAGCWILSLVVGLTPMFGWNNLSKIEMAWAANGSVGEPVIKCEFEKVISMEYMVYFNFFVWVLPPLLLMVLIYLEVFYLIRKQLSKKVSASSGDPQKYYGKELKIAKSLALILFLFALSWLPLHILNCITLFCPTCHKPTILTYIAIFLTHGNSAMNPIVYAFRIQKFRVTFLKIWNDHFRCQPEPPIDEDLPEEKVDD
The experiment in a line: Adenosine A₁ receptor binding test (³H-CHA binding). On the set-up: species or system guinea pig. Conditions: for inhibition at 100 µM: 10⁻⁴M; for inhibition at 100 µM / inhibition at 10 µM: guinea pig cerebrum; for inhibition at 10 µM: 10⁻⁵M; for Ki: Cheng-Prusoff's equation. The method, then: Cerebrum of a guinea pig was suspended in ice-cooled 50 mM Tris hydroxymethyl aminomethane hydrochloride (Tris HCl) buffer (pH 7.7) by using Polytron homogenizer (manufactured by […] Co.). […] The suspension was centrifuged under the same conditions, and the final precipitate was suspended once again in 50 mM Tris HCl buffer to give a tissue concentration of 100 mg (wet weight)/ml. The tissue suspension was incubated at 37°C for 30 minutes in the presence of 0.02 unit/mg tissue of adenosine deaminase (manufactured by Sigma Co.). The tissue suspension was then centrifuged (50,000 x g, 10 minutes), and 50 mM Tris HCl buffer was added to the precipitate to adjust the concentration of tissue to 10 mg (wet weight)/ml. […] The mixture solution was allowed to stand at 25°C for 90 minutes and then rapidly filtered by suction through a glass fiber filter (GF/C manufactured by Whatman Co.). […] The radioactivity on the filter was determined with a liquid scintillation counter (manufactured by Packard Instrument Co.). […] The inhibition constant (Ki value) shown in the table was calculated by the Cheng-Prusoff's equation.

In data set [3] the target is T2, A₂ receptor (Rattus norvegicus, UniProt P30543).
T2 construct: from tissue; host or cells: rat corpus striatum membrane preparation
T2 sequence (P30543 whole entry): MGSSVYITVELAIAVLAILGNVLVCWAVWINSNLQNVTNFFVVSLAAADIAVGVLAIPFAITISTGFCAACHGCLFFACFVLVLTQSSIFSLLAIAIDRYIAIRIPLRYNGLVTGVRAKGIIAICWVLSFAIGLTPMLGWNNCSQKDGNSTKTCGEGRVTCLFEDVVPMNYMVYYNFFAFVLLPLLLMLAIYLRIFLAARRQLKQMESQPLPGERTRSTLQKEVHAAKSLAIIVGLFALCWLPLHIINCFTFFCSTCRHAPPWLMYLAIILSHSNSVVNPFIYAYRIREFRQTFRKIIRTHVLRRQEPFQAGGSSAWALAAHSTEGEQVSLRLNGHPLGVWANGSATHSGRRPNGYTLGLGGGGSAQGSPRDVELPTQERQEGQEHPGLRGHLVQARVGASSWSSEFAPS
Nature of the data set: Adenosine A₂ receptor binding test (³H-NECA binding). Conditions: for inhibition at 100 µM / inhibition at 10 µM / inhibition at 1 µM / inhibition at 0.1 µM: read-out: Inhibition (%) A₂ Receptor; for Ratio (A₁/A₂): ratio of Ki values A₁/A₂.

Data set [4] concerns Haloperidol-Induced Catalepsy. The experiment in a line: Effect on haloperidol-induced catalepsy. The following applies: for Number of the Animals Showing Remission: of five mice, catalepsy score not more than 4 points; for Number of the Animals Showing Remission / Remission Rate (%) / Total Score: 10 mg/kg orally; for Remission Rate (%): rate of decrease in total score based on control group; for Total Score: total catalepsy score of five mice (25 points at the full), haloperidol 1.0 mg/kg i.p. In kind it is in vivo, mice. The method, boiled down: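 Mice got haloperidol 1.0 mg/kg i.p. in 0.3% CMC, then test compounds orally 1 hr later in 0.3% CMC or Tween 80/water. Catalepsy was scored on a 4.5 cm-high bar 1 hr after dosing; remission meant score ≤4 points. ED₅₀ came from Probit analysis.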

Like-named read-outs stand apart in the source and are kept apart here.

One may read the inhibition as the drop in the measured response relative to a control, in per cent. A word on the Ki: it is a dissociation constant, usually derived from enzyme kinetics or from competition with a known ligand. In data set [1], `Cn1c(=O)c2[nH]c(/C=C/c3ccc4c(c3)OCO4)nc2n(C)c1=O` [Compound 23, (E)-8-(3,4-Methylenedioxystyryl)theophylline] showed an MLD greater than 300 mg/kg. In addition, the inhibition at 100 µM in data set [2] was 38%; in data set [3] (10⁻⁴M, ³H-NECA binding, rat corpus striatum) it was 81%. Besides, the inhibition at 10 µM in data set [2] stood at 32%; in data set [3] (10⁻⁵M, ³H-NECA binding, rat corpus striatum) it was 90%. In data set [2], this compound had a Ki greater than 100000 nM. Further, in data set [3] (10⁻⁶M, ³H-NECA binding, rat corpus striatum), the inhibition at 1 µM came to 60%. Further, the inhibition at 0.1 µM in data set [3] (10⁻⁷M, ³H-NECA binding, rat corpus striatum) came to 38%.
`CCn1c(=O)c2[nH]c(/C=C/c3ccc4c(c3)OCCO4)nc2n(CC)c1=O` [Compound 17, (E)-8-[2-(1,4-Benzodioxan-6-yl)vinyl]-1,3-diethylxanthine]: the MLD in data set [1] was greater than 100 mg/kg. For the same compound, in data set [2], the inhibition at 100 µM turned out to be 31%, the inhibition at 10 µM worked out at 23% and the Ki is greater than 100000 nM. In data set [3], the “Ratio (A₁/A₂)” value is given as > 16,000, the inhibition at 0.1 µM amounted to 70%, the inhibition at 1 µM came to 69% and the inhibition at 10 µM came out at 80%. Moreover, the inhibition at 100 µM in data set [3] came to 80%. This compound also came in with a Ki in data set [3] (³H-NECA binding) of 6.3 nM.
Consider `CCn1c(=O)c2c(nc(/C=C/c3ccc4c(c3)OCO4)n2C)n(CC)c1=O` [Compound 16, (E)-1,3-Diethyl-7-methyl-8-(3,4-methylenedioxystyryl)xanthine], for which the MLD in data set [1] is on record as greater than 300 mg/kg. In data set [2], the inhibition at 100 µM was 72% and the inhibition at 10 µM turned out to be 53%. For the same compound, in data set [3], the inhibition at 0.1 µM amounted to 80%, the inhibition at 1 µM was 96%, the inhibition at 10 µM was 88% and the inhibition at 100 µM came to 93%. The affinity in data set [3] (³H-NECA binding), expressed as Ki, was 6.1 nM. The ED50 in data set [4] (Mus musculus, 1 h, ten mice at each dose, effective = catalepsy score 3 or less, Probit analysis, oral, read-out: ED₅₀) came out at 0.76 mg/kg. In data set [4], the “Number of the Animals Showing Remission” value is listed as 5, the “Remission Rate (%)” value is reported as 84% and the “Total Score” value was 4.
In the case of `COc1ccc(/C=C/c2nc3c([nH]2)c(=O)n(C)c(=O)n3C)c(OC)c1OC` [Compound 19, (E)-8-(2,3,4-Trimethoxystyryl)theophylline], the MLD in data set [1] is given as greater than 300 mg/kg. Besides, in data set [2], the inhibition at 100 µM came out at 31%, the inhibition at 10 µM was 10% and the Ki was greater than 100000 nM. Also, in data set [3], the “Ratio (A₁/A₂)” value was greater than 320, the inhibition at 0.1 µM was 65%, the inhibition at 1 µM stood at 87% and the inhibition at 10 µM came to 92%. For the same compound, in data set [3], the inhibition at 100 µM turned out to be 91%. The compound further came in with a Ki in data set [3] (³H-NECA binding) of 310 nM.
`COc1ccc(/C=C/c2nc3c(c(=O)n(C)c(=O)n3C)n2C)c(C)c1C` [Compound 22, (E)-8-(4-Methoxy-2,3-dimethylstyryl)caffeine] returned an MLD in data set [1] greater than 100 mg/kg. In data set [2], the inhibition at 100 µM was 1%, the inhibition at 10 µM was found to be 1% and the Ki was greater than 100000 nM. Besides, in data set [3], the “Ratio (A₁/A₂)” value is reported as > 33,000, the inhibition at 0.1 µM was 78%, the inhibition at 1 µM is 85% and the inhibition at 10 µM is 78%. Further, the inhibition at 100 µM in data set [3] is 81%. Moreover, the Ki in data set [3] (³H-NECA binding) was 3 nM. Moreover, in data set [4], the “Number of the Animals Showing Remission” value came to 3, the “Remission Rate (%)” value stood at 20% and the “Total Score” value came out at 20.
Consider `CCn1c(=O)c2[nH]c(/C=C/c3ccc(OC)c(C)c3OC)nc2n(CC)c1=O` [Compound 13, (E)-8-(2,4-Dimethoxy-3-methylstyryl)-1,3-diethylxanthine], for which the MLD in data set [1] is listed as greater than 300 mg/kg. Further, in data set [2], the inhibition at 100 µM worked out at 71% and the inhibition at 10 µM worked out at 59%. Moreover, in data set [3], the inhibition at 0.1 µM was 77%, the inhibition at 1 µM came out at 84%, the inhibition at 10 µM was determined as 88% and the inhibition at 100 µM came out at 95%. Besides, in data set [3] (³H-NECA binding), the Ki is 9.5 nM.
On to `CCn1c(=O)c2[nH]c(/C=C/c3ccc(OC)c(OC)c3OC)nc2n(CC)c1=O` [Compound 7, (E)-1,3-Diethyl-8-(2,3,4-trimethoxystyryl)xanthine], for which, in data set [1], the MLD is given as greater than 300 mg/kg. Further, in data set [2], the inhibition at 100 µM is 49%, the inhibition at 10 µM amounted to 34% and the Ki was greater than 10000 nM. Besides, in data set [3], the “Ratio (A₁/A₂)” value is reported as greater than 670, the inhibition at 0.1 µM stood at 65%, the inhibition at 1 µM came to 88% and the inhibition at 10 µM was 75%. Further, the inhibition at 100 µM in data set [3] was 83%. Besides, affinity in data set [3] (³H-NECA binding) was put at a Ki of 15 nM.
Compound `Cn1c(=O)c2c(nc(/C=C/c3ccc4c(c3)OCO4)n2C)n(C)c1=O` [Compound 24, (E)-8-(3,4-Methylenedioxystyryl)caffeine] showed an MLD in data set [1] greater than 300 mg/kg. In data set [2], the inhibition at 100 µM was -25%, the inhibition at 10 µM is -4% and the Ki is greater than 100000 nM. For the same compound, in data set [3], the “Ratio (A₁/A₂)” value was > 3,800, the inhibition at 0.1 µM worked out at 62%, the inhibition at 1 µM turned out to be 57% and the inhibition at 10 µM was 75%. The inhibition at 100 µM in data set [3] came to 85%. Besides, the Ki in data set [3] (³H-NECA binding) is 26 nM.
For the compound `CCn1c(=O)c2[nH]c(/C=C/c3ccc(OC)c(OC)c3)nc2n(CC)c1=O` [Compound 1, (E)-8-(3,4-Dimethoxystyryl)-1,3-diethylxanthine], in data set [1], the MLD is listed as greater than 300 mg/kg. Moreover, in data set [2], the inhibition at 100 µM was 86% and the inhibition at 10 µM amounted to 84%. In data set [3], the inhibition at 0.1 µM turned out to be 53%, the inhibition at 1 µM was 86%, the inhibition at 10 µM came out at 98% and the inhibition at 100 µM was determined as 100%. In data set [3] (³H-NECA binding), the Ki amounted to 23 nM.
Turning to `COc1ccc(/C=C/c2nc3c([nH]2)c(=O)n(C)c(=O)n3C)c(C)c1C` [Compound 21, (E)-8-(4-Methoxy-2,3-dimethylstyryl)theophylline], the MLD in data set [1] is given as greater than 100 mg/kg. Moreover, in data set [2], the inhibition at 100 µM was determined as 40%, the inhibition at 10 µM amounted to 36% and the Ki was greater than 100000 nM. Also, in data set [3], the inhibition at 0.1 µM came to 56%, the inhibition at 1 µM is 68%, the inhibition at 10 µM was 83% and the inhibition at 100 µM worked out at 79%. In data set [3] (³H-NECA binding), this compound had a Ki of 22 nM. Further, in data set [4], the “Number of the Animals Showing Remission” value is on record as 4, the “Remission Rate (%)” value came out at 24% and the “Total Score” value was 19.
`CCn1c(=O)c2[nH]c(/C=C/c3ccc4c(c3)OCO4)nc2n(CC)c1=O` [Compound 15, (E)-1,3-Diethyl-8-(3,4-methylenedioxystyryl)xanthine]: the MLD in data set [1] is reported as greater than 300 mg/kg. Further, in data set [2], the inhibition at 100 µM was 35%, the inhibition at 10 µM came out at 25% and the Ki was greater than 100000 nM. Further, in data set [3], the inhibition at 0.1 µM was 53%, the inhibition at 1 µM came out at 64%, the inhibition at 10 µM was 70% and the inhibition at 100 µM is 70%. Further, in data set [3] (³H-NECA binding), the Ki was determined as 15 nM.
For the compound `CCn1c(=O)c2c(nc(/C=C/c3cccc(OC)c3OC)n2C)n(CC)c1=O` [Compound 4, (E)-8-(2,3-Dimethoxystyryl)-1,3-diethyl-7-methylxanthine], in data set [1], the MLD is given as greater than 300 mg/kg. Besides, in data set [2], the inhibition at 100 µM is 70% and the inhibition at 10 µM came to 55%. In data set [3], the inhibition at 0.1 µM was determined as 57%, the inhibition at 1 µM is 84%, the inhibition at 10 µM was 88% and the inhibition at 100 µM is 90%. Besides, affinity in data set [3] (³H-NECA binding) was put at a Ki of 33 nM.
